Reference: the CombiSolv-Exp solvation set (Vermeire and Green 2021)

Assay: solvent given as SMILES

CCCSC(=O)N(CCC)CCC
solvation free energy, 298 K (in O): -4.13 kcal/mol

FC(F)(F)C(Cl)Br (stereo not given)
solvation free energy, 298 K (in C1CCOC1): -5.01 kcal/mol
solvation free energy, 298 K (in C1COCCO1): -4.41 kcal/mol
solvation free energy, 298 K (in CC(C)=O): -4.77 kcal/mol
solvation free energy, 298 K (in COC(C)(C)C): -4.69 kcal/mol
solvation free energy, 298 K (in COC(C)=O): -4.61 kcal/mol

CC(=O)c1ccccc1
solvation free energy, 298 K (in CCCCCC): -6.05 kcal/mol
solvation free energy, 298 K (in CCCCCCCCCCCCCCCC): -6.04 kcal/mol
solvation free energy, 298 K (in O): -4.58 kcal/mol

Cc1cccc(C)c1C
solvation free energy, 298 K (in O): -1.15 kcal/mol

Brc1ccc(Br)cc1
solvation free energy, 298 K (in CC(C)(C)O): -6.86 kcal/mol
solvation free energy, 298 K (in CC(C)CCO): -7.01 kcal/mol
solvation free energy, 298 K (in CC(C)CO): -6.92 kcal/mol
solvation free energy, 298 K (in CCC(C)O): -6.94 kcal/mol
solvation free energy, 298 K (in CCCC(C)O): -6.98 kcal/mol
solvation free energy, 298 K (in CCCCCC): -7.25 kcal/mol
solvation free energy, 298 K (in CCCCCCC): -7.55 kcal/mol
solvation free energy, 298 K (in CCCCCCCCC=CCCCCCCCC(=O)OCC(COC(=O)CCCCCCCC=CCCCCCCCC)OC(=O)CCCCCCCC=CCCCCCCCC): -7.01 kcal/mol
solvation free energy, 298 K (in CCCCCCCCO): -7.11 kcal/mol
solvation free energy, 298 K (in CCCCOCCCC): -7.74 kcal/mol
solvation free energy, 298 K (in CCOCC): -8.21 kcal/mol
solvation free energy, 298 K (in COC(C)(C)C): -7.73 kcal/mol
solvation free energy, 298 K (in ClC(Cl)(Cl)Cl): -7.9 kcal/mol

NCc1ccccc1
solvation free energy, 298 K (in O): -6.34 kcal/mol

CCCCC#N
solvation free energy, 298 K (in CCCCCC): -4.45 kcal/mol
solvation free energy, 298 K (in CCCCCCCCCCCCCCCC): -4.01 kcal/mol
solvation free energy, 298 K (in CCCCCCCCO): -4.89 kcal/mol
solvation free energy, 298 K (in O): -3.49 kcal/mol
solvation free energy, 298 K (in [2H]O[2H]): -3.42 kcal/mol

C=C1CCC23CC1C(C)(C)C2CCC3C (stereo not given)
solvation free energy, 298 K (in O): 0.8 kcal/mol

O=P(c1ccccc1)(c1ccccc1)c1ccccc1
solvation free energy, 298 K (in O): -17 kcal/mol

Nc1ccc(S(=O)(=O)Nc2ccccn2)cc1
solvation free energy, 298 K (in O): -18.7 kcal/mol

CC(C)(C)c1ccc(O)cc1
solvation free energy, 298 K (in CCCCCC): -7.63 kcal/mol
solvation free energy, 298 K (in O): -5.91 kcal/mol

CCOP(=O)(OCC)OCC
solvation free energy, 298 K (in O): -7.5 kcal/mol
